Experimental data: a melting point compilation (Tetko et al.; mined from patent text by program, amines drawn as free bases though some values may be those of a salt)

Row | SMILES | melting point
1 | O=C1CCC2=C1C(c1ccc(F)c(I)c1)C1=C(CCS1)N2 (centres undefined) | > 250 °C
2 | O[C@@H]1CN=C(c2ccccc2)O[C@H]1c1ccccc1 (racemic) | 135 °C
3 | CN1C(=O)C(=O)N(Cc2ccccc2)CC1(CCO)c1ccc(Cl)c(Cl)c1 (centres undefined) | 198 °C
4 | CON(O)C(=O)c1ccccc1[N+](=O)[O-] | 104 °C
5 | C=CCOc1ccc2sc(=O)oc2c1 | 78 to 80 °C
6 | CCCCc1nc2ccsc2n1Cc1ccc(-c2ccccc2C(=O)O)cc1 | 203 °C
7 | COC(=O)CCC/C=C(/c1ccc(OC)c(C(=O)OC)c1)c1cc(C)c2oc(=O)n(C)c2c1 | 134 to 135 °C
8 | CCOC(=O)c1cn(C2CC2)c2nc(SCC)ncc2c1=O | 138 °C
9 | COc1cc2c(cc1[N+](=O)[O-])N(CC(=O)N(C)C)C(=O)CN(CC(=O)N(C)C)C2 | 98 °C
10 | CCCCNC(=O)NCCCn1c(CCOC)nc2c(N)nc3ccccc3c21 | 159 to 160 °C
11 | Cc1sc(C(N)=O)c2c1-c1c(cnn1Cc1ccccc1)CC2 | 205 to 206 °C
12 | O=S(=O)(c1ccc(Oc2cncc(Br)c2)cc1)N1CCCC1 | 148 °C
13 | CCCP(=O)(O)CCCN | 210 to 213 °C
14 | CCOCc1nc2c(N)nc(C)c(C)c2n1NCCCNS(C)(=O)=O | 147 to 149 °C
15 | CC(=O)N1CCN(c2ccc(N=CNc3cc(Cl)cc(C(=Cc4ccccc4Cl)C(N)=O)c3)cc2)CC1 | 259 to 260 °C
16 | CC1(C)C=C(C(=O)NCCC#N)c2cc(C(F)(F)C(F)(F)F)ccc2O1 | 163 to 164 °C
17 | COc1ccc(C2(C#Cc3ccccc3)CCCC(=O)C2)cc1OC1CCCC1 (centres undefined) | 90 to 91 °C
18 | COc1cc(OC)nc(Sc2c([N+](=O)[O-])nc(C)n2C)n1 | 228 to 230 °C
19 | O=C(NCCc1ccccc1)Nc1ccc2ncc(Br)cc2n1 | 245 to 246 °C
20 | O=C(CNC(=O)c1nc2cccc(OC(F)(F)F)c2cc1OCc1ccccc1)OCc1ccccc1 | 123 to 124 °C
21 | CC(=O)Nc1ccc(-c2c[nH]c(=O)c(C)n2)cc1 | > 300 °C
22 | CN1CC(CCCl)Oc2ccc([N+](=O)[O-])cc2C1=S (centres undefined) | 153 to 155 °C
23 | COC(=O)Nc1cn2cc(S(=O)c3ccccn3)ccc2n1 (centres undefined) | 231 to 235 °C
24 | COc1ccnc(CCC(=O)O)c1 | 131 to 132 °C
25 | Cc1c(C(=O)OCc2ccccc2)sc2ccc3[nH]c4c(c3c12)CNCC4 | 178 °C

Row | SMILES | melting point
26 | CC(=O)OC1CC2(C)C(=O)CCC2C2CCC3=CC(=O)C=CC3(C)C12F (centres undefined) | 177 to 178 °C
27 | O=C(N[C@@H](Cc1c[nH]c2ccccc12)C(=O)O)c1ccc([N+](=O)[O-])cc1 | 115 to 117 °C
28 | OC(Cc1ncc[nH]1)(Cn1cncn1)c1ccc(Cl)cc1Cl (centres undefined) | 168 to 170 °C
29 | Oc1ccc(-c2c3ccccc3c(Br)c3sc4ccccc4c23)cc1O | 181 to 182 °C
30 | CC(C)(C)c1cccc(S(=O)(=O)n2c(CCCCC(=O)O)cc3cc(C(F)(F)F)ccc32)c1 | 135 °C
31 | CC(CC1(c2ccc(Cl)cc2)CCC1)NC=O (centres undefined) | 71 to 73 °C
32 | C=CC(Cc1ccccc1)(C(=O)O)N(Cc1ccccc1)C(=O)OCc1ccccc1 (centres undefined) | 68 to 70 °C
33 | CCn1c(=O)n(CCC(C)C(C)=O)c(=O)c2c1ncn2CCOC (centres undefined) | 83 to 84 °C
34 | CC(n1ncnn1)C(F)(c1ccc(OC(F)(F)F)cc1)c1ccc(OC(F)(F)F)cc1 (centres undefined) | 68 to 70 °C
35 | COCCc1nc2c(N)nc3ccccc3c2n1CCCCCC(=O)N1CCOCC1 | 131 to 132 °C
36 | CS(=O)(=O)c1cc(C(=O)NCCN2CCOCC2)c(NCc2ccco2)cc1Cl | 127 to 130 °C
37 | COc1cn(-c2cccc(C(F)(F)F)c2)nc(-n2ccnc2-c2ccccc2)c1=O | 167 to 170 °C
38 | CC[C@H](C)[C@H](OCc1ccccc1)[C@H]1[C@H]([N+](=O)[O-])[C@@H]([C@@H](OCc2ccccc2)C(C)C)N[C@@H]1C(=O)NCC(=O)O | 153 to 155 °C
39 | CN(C)c1ccc2c(c1)C(=O)CC(c1ccc(OCc3ccccc3)cc1)=N2 | 283 to 285 °C
40 | O=c1[nH]c(C2CC2)nc2c1cnn2-c1ncc(C(F)(F)F)cc1Cl | 239 °C
41 | COc1ccc(C2CCCCC2)cc1-c1csc(NC(=O)N2CCN(C3CCOCC3)CC2)n1 | 226 °C
42 | NS(=O)(=O)c1ncccc1C(F)(F)F | 135 to 140 °C
43 | NC[C@@H]1CNc2cccc(-c3cc(Cl)ccc3Cl)c2O1 | 130 °C
44 | CCCN(CCC)C(Cc1cccc2[nH]cnc12)C(=O)OCC (centres undefined) | 78 to 80 °C
45 | Clc1ccc(-c2cnccn2)c(Cl)c1 | 131 to 132 °C
46 | CC12CCC(C1)C1(C)Oc3ccc(C(O)c4ccc(CO)cc4)cc3C21C (centres undefined) | 113 to 115 °C
47 | CCC(=Nc1ccc2c(c1)C(=O)c1ccc(N=C(CC)N3CCOCC3)cc1C2=O)N1CCOCC1 | 220 to 223 °C
48 | O=c1[nH]c(=O)n(Cc2ccc(Cl)cc2)c2ccccc12 | 217 to 218 °C
49 | CC(C)(C)OC(=O)NC(Cc1ccccc1)C(O)CNCC(O)C(Cc1ccccc1)NC(=O)SC(C)(C)C (centres undefined) | 140 to 141 °C
